Columns and labels:
[1] = 298.15 K; 101.33 kPa; Liquid
[2] = excess molar enthalpy (molar enthalpy of mixing); xn = mol fraction of the nth substance listed; settings: 298.15 K, 101.33 kPa, Liquid, Flow calorimetry

CCCCCCC [heptane]
Settings	mass density [kg/m3]
[1]	680.17

C=CCCCC [hex-1-ene] + CCCCCCCCCCCC
[2]
Settings	excess molar enthalpy [kcal/mol]
x1 = 0.0501	0.00512
x1 = 0.0999	0.00975
x1 = 0.15	0.0136
x1 = 0.1999	0.0174
x1 = 0.2521	0.0208
x1 = 0.2994	0.0235
x1 = 0.3494	0.0259
x1 = 0.4001	0.0277
x1 = 0.4503	0.0287
x1 = 0.5001	0.0293
x1 = 0.5505	0.0294
x1 = 0.5998	0.029
x1 = 0.6501	0.0278
x1 = 0.6999	0.026
x1 = 0.7499	0.0234
x1 = 0.8001	0.02
x1 = 0.8503	0.0162
x1 = 0.8999	0.0117
x1 = 0.95	0.00626

CCCCCCCCCC [decane]
Settings	mass density [kg/m3]
[1]	726.3

C=CCCCC [hex-1-ene] + CCCCCCCC
[2]
Settings	excess molar enthalpy [kcal/mol]
x1 = 0.05	0.00272
x1 = 0.1	0.00532
x1 = 0.15	0.0078
x1 = 0.2036	0.00995
x1 = 0.2496	0.0115
x1 = 0.3	0.0131
x1 = 0.3497	0.0143
x1 = 0.3998	0.0153
x1 = 0.45	0.0158
x1 = 0.5	0.0162
x1 = 0.5499	0.0161
x1 = 0.5994	0.0157
x1 = 0.65	0.015
x1 = 0.6998	0.014
x1 = 0.7501	0.0126
x1 = 0.8002	0.0108
x1 = 0.8499	0.00882
x1 = 0.9	0.00628
x1 = 0.95	0.00332

CCCCCCCCCCCCCC [tetradecane]
Settings	mass density [kg/m3]
[1]	759.36

C=CCCCC [hex-1-ene] + CCCCCCCCCC
[2]
Settings	excess molar enthalpy [kcal/mol]
x1 = 0.05	0.00385
x1 = 0.1	0.00726
x1 = 0.1503	0.0103
x1 = 0.2001	0.0129
x1 = 0.2482	0.0154
x1 = 0.2997	0.0174
x1 = 0.3504	0.019
x1 = 0.3999	0.0204
x1 = 0.4508	0.0211
x1 = 0.4994	0.0217
x1 = 0.5501	0.0217
x1 = 0.5996	0.0213
x1 = 0.6496	0.0204
x1 = 0.7004	0.019
x1 = 0.7495	0.0172
x1 = 0.7998	0.0149
x1 = 0.8501	0.0122
x1 = 0.9	0.00862
x1 = 0.95	0.00457

CCCCCCCC [octane]
Settings	mass density [kg/m3]
[1]	698.72

C=CCCCC [hex-1-ene]
Settings	mass density [kg/m3]
[1]	668.73

CCCCCCCCCCCC [dodecane]
Settings	mass density [kg/m3]
[1]	745.32

C=CCCCC [hex-1-ene] + CCCCCCC
[2]
Settings	excess molar enthalpy [kcal/mol]
x1 = 0.05	0.00266
x1 = 0.1	0.00507
x1 = 0.1499	0.00724
x1 = 0.1998	0.00898
x1 = 0.2496	0.0107
x1 = 0.2998	0.0121
x1 = 0.35	0.0131
x1 = 0.3984	0.0141
x1 = 0.4492	0.0146
x1 = 0.5005	0.0147
x1 = 0.5498	0.0147
x1 = 0.6	0.0143
x1 = 0.6496	0.0135
x1 = 0.6992	0.0126
x1 = 0.7497	0.0113
x1 = 0.8	0.00988
x1 = 0.8499	0.0079
x1 = 0.9	0.00559
x1 = 0.95	0.0028

CCCCCCCCCCCCCC [tetradecane] + C=CCCCC
[2]
Settings	excess molar enthalpy [kcal/mol]
x2 = 0.05	0.00618
x2 = 0.1001	0.0124
x2 = 0.1501	0.0179
x2 = 0.2003	0.0228
x2 = 0.2499	0.0271
x2 = 0.297	0.0305
x2 = 0.3497	0.0339
x2 = 0.4002	0.0363
x2 = 0.4498	0.0376
x2 = 0.5	0.0386
x2 = 0.5497	0.0387
x2 = 0.5998	0.038
x2 = 0.6495	0.0364
x2 = 0.6996	0.0339
x2 = 0.7502	0.0306
x2 = 0.7996	0.0264
x2 = 0.8498	0.0211
x2 = 0.8999	0.015
x2 = 0.95	0.00747

— the NIST ThermoML archive (doi:10.1021/je030215z)
